The source of these data is patent US20050288347A1, “Certain triazole-based compounds, compositions, and uses thereof” (priority 2004, published 2005).

Entries after “also recorded” stand apart in the source; their conditions may differ.

One assay has as its target protein kinase. The assay can be described thus: HTS ATP-utilizing enzyme assay, off-chip mobility-shift format (Caliper HTS 250). The assay is classed as biochemical, human. Conditions: kinase(s) for which the compound exhibits protein kinase inhibitory activity; test compound 10 μM; active = greater than three-sigma from the mean activity of inactive compounds. In a few lines: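 Kinase reactions ran 2.5 h at 20 to 22 °C with test compound at 10 μM, in a HEPES pH 7.5 master buffer containing Triton X-100 and BSA. Peptide substrate and phosphorylated product separated by mobility shift; inhibition normalized to DMSO (0%) and EDTA (100%) controls, with three-sigma thresholds for hits.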
Consider `Oc1ccc(-c2nnc(S)n2-c2cccc(Cl)c2)cc1` [4-(4-(3-chlorophenyl)-5-mercapto-4H-1,2,4-triazol-3-yl)phenol], for which the Kinase entry is “CDK5 and CDK2-cyclinA and CDK2-cyclinE”.

For the compound `CCn1c(SCC(=O)Nc2nc(C)cs2)nnc1-c1ccc(S(=O)(=O)N2CCN(C)CC2)cc1`, the Kinase result is “FYN”.

Consider `Cc1cccc(OCc2nnc(SC(C)C(=O)O)n2C)c1` (stereo not drawn) [2-(4-methyl-5-(m-tolyloxymethyl)-4H-1,2,4-triazol-3-ylthio)propanoic acid], for which the Kinase entry is given as “AURORA-A”.

`O=C(CSc1nnc(-c2cccnc2)n1-c1ccccc1)CC(=O)Nc1ccccc1`: the Kinase entry is “AURORA-A”.

For `Cc1ccc(NCc2nnc(S)n2-c2ccc(Cl)cc2)cc1` [5-((p-toluidino)methyl)-4-(4-chlorophenyl)-4H-1,2,4-triazole-3-thiol], the Kinase entry is “PAK2 and GSK3-α”.

For the compound `CCN(CC)C(=O)CSc1nnc(-c2ccc(S(=O)(=O)N3CCCCCC3)cc2)n1CC`, the Kinase entry is “AURORA-A”.

Turning to `CCOC(=O)CSc1nnc(-c2ccc(OC)c(OC)c2)n1-c1ccccc1` [ethyl 2-(5-(3,4-dimethoxyphenyl)-4-phenyl-4H-1,2,4-triazol-3-ylthio)acetate], the Kinase entry is reported as “MAPKAPK-2; also recorded: CDK2-cyclinE”.

For `COCCn1c(SCC(=O)OC(C)C)nnc1-c1cc2ccccc2cc1O`, the Kinase result was “FYN”.

As for `O=C(CSc1nnc(-c2cccnc2)[nH]1)c1ccccc1` [1-phenyl-2-(5-(pyridin-3-yl)-4H-1,2,4-triazol-3-ylthio)ethanone], the Kinase entry was “AURORA-A”.

`Cn1c(COc2ccc([N+](=O)[O-])cc2)nnc1SCC(=O)Nc1sc2c(c1C(N)=O)CCCC2`: the Kinase entry is recorded as “GSK3-β; also recorded: GSK3-α; also recorded: AURORA-A”.

On to `CCn1c(SC(C)C(=O)Nc2ccccc2C)nnc1-c1ccc([N+](=O)[O-])cc1` (stereo not drawn) [2-(4-ethyl-5-(4-nitrophenyl)-4H-1,2,4-triazol-3-ylthio)-N-o-tolylpropanamide], for which the Kinase entry is “DAPK1”.

Regarding `CCn1c(SCC(=O)Nc2nc3ccccc3s2)nnc1-c1cccnc1`, the Kinase result is given as “GSK3-β; also recorded: GSK3-α; also recorded: CDK2-cyclinE”.

With `Cc1ccc(OCc2nnc(SC(C)C(=O)O)n2-c2ccccc2)cc1` (stereo not drawn) [2-(4-phenyl-5-(p-tolyloxymethyl)-4H-1,2,4-triazol-3-ylthio)propanoic acid], the Kinase entry is recorded as “AURORA-A”.

Consider `COc1cccc(NC(=O)CSc2nnc(CNc3ccc(C)cc3)n2C)c1`, for which the Kinase result is reported as “CHEK2”.

As to `COC(=O)CSc1nnc(CNc2ccc(OC)cc2)n1C`, the Kinase entry was “PDGFRR-α and FYN”.

In the case of `N#CCSc1nnc(-c2ccco2)n1-c1ccccc1` [2-(5-(furan-2-yl)-4-phenyl-4H-1,2,4-triazol-3-ylthio)acetonitrile], the Kinase entry was “CHEK2”.

For the compound `Cn1c(Cc2ccccc2)nnc1SCC#N` [2-(5-benzyl-4-methyl-4H-1,2,4-triazol-3-ylthio)acetonitrile], the Kinase entry is given as “AURORA-A”.

In the case of `CCc1ccc(OCc2nnc(S)n2Cc2ccccc2)cc1` [4-benzyl-5-((4-ethylphenoxy)methyl)-4H-1,2,4-triazole-3-thiol], the Kinase result is given as “AKT1”.

As to `N#CCSc1nnc(-c2ccc(O)cc2)n1Cc1ccco1`, the Kinase entry is listed as “GSK3-β; also recorded: GSK3-α; also recorded: AURORA-A”.

For the compound `COc1ccc(-n2c(COc3cccc4ccccc34)nnc2SCC#N)cc1`, the Kinase result was “MAPKAPK-2 and CDK1”.

In the case of `CCc1nnc(NC(=O)CSc2nnc(-c3cccc(C)c3)n2CC)s1`, the Kinase result is on record as “LCK”.

For `Cc1nc(NC(=O)CSc2nnc(-c3cccnc3)n2Cc2ccco2)sc1C`, the Kinase result is “GSK3-β; also recorded: AURORA-A”.

As for `COCCCn1c(SCC(=O)Nc2c(C)cccc2C)nnc1-c1ccncc1`, the Kinase entry is on record as “FYN”.

Take `CCN(CC)S(=O)(=O)c1ccc(-c2nnc(SCC(=O)N3C(C)CCCC3C)n2CC)cc1` (stereo not drawn): the Kinase entry was “PDGFRR-α and FYN”.

As for `COc1ccc(-n2c(SCC(=O)O)nnc2-c2cccnc2)cc1`, the Kinase entry is “AURORA-A”.

With `COc1ccc(NCc2nnc(SCC(=O)Nc3cccc(O)c3)n2-c2ccccc2OC)cc1`, the Kinase result is listed as “CHEK2; also recorded: PDGFRR-α; also recorded: AURORA-A”.

For the compound `O=C(CSc1nnc(-c2ccncc2)n1Cc1ccco1)Nc1cccc(I)c1`, the Kinase result is “GSK3-β and AKT3 and SRC”.

Regarding `COCCn1c(SCC(=O)OC2CCCCC2)nnc1-c1cc2ccccc2cc1O`, the Kinase result is reported as “DAPK1”.

On to `CCc1nnc(NC(=O)CSc2nnc(-c3ccc(NS(=O)(=O)c4ccc(C)cc4)cc3)n2C)s1`, for which the Kinase result is listed as “PDGFRR-α”.

As for `COc1cc(C(=O)CSc2nnc(-c3ccc(O)cc3)n2Cc2ccco2)ccc1NC(C)=O`, the Kinase entry is “GSK3-α”.

Take `N#CCSc1nnc(-c2ccc(F)cc2)[nH]1` [2-(5-(4-fluorophenyl)-4H-1,2,4-triazol-3-ylthio)acetonitrile]: the Kinase entry is “FLT-3; also recorded: DYRK2; also recorded: GSK3-β”.

With `CCn1c(SC(C)C(=O)O)nnc1-c1cccnc1` (stereo not drawn) [2-(4-ethyl-5-(pyridin-3-yl)-4H-1,2,4-triazol-3-ylthio)propanoic acid], the Kinase result is recorded as “LYNA”.

With `COc1ccccc1OCc1nnc(S)n1Cc1ccco1`, the Kinase result is on record as “AURORA-A; also recorded: GSK3-β; also recorded: GSK3-α”.

Regarding `COc1ccc(NCc2nnc(S)n2-c2ccc(C)cc2)cc1` [5-((4-methoxyphenylamino)methyl)-4-p-tolyl-4H-1,2,4-triazole-3-thiol], the Kinase result was “AURORA-A and PDGFRR-α and MSK2”.

As to `CCn1c(S)nnc1COc1ccc(Cl)c(C)c1` [5-((4-chloro-3-methylphenoxy)methyl)-4-ethyl-4H-1,2,4-triazole-3-thiol], the Kinase result is given as “GSK3-α”.

Consider `O=C(CSc1nnc(CC2CCCCC2)n1-c1ccccc1)OCc1ccccc1` [benzyl 2-(5-(cyclohexylmethyl)-4-phenyl-4H-1,2,4-triazol-3-ylthio)acetate], for which the Kinase entry was “PDK1 and HCK”.

The assay is the same for the next values; noted with them: test compound 10 μM; active = activity greater than three-sigma from the mean of the predominately inactive population for that enzyme.
For the compound `COc1ccccc1-n1c(SCCO)nnc1-c1cccc(Cl)c1` [2-(5-(3-chlorophenyl)-4-(2-methoxyphenyl)-4H-1,2,4-triazol-3-ylthio)ethanol], the “protein kinase against which the compound exhibits inhibitory activity (Table 3)” value is reported as “ROCK2”.

Regarding `CCOc1ccc(NCc2nnc(SCCN3CCCCC3)n2-c2ccc(C)cc2)cc1`, the “protein kinase against which the compound exhibits inhibitory activity (Table 3)” value is “FYN and PDGFRR-α”.

Turning to `COc1ccc(C(=O)NNC(=O)CSc2nnc(-c3ccc(O)cc3)n2Cc2ccco2)cc1`, the “protein kinase against which the compound exhibits inhibitory activity (Table 3)” value was “GSK3-β; also recorded: AURORA-A; also recorded: PDGFRR-α”.

Regarding `COc1ccc(NCc2nnc(SCCN3CCCCC3)n2-c2cccc(Cl)c2)cc1`, the “protein kinase against which the compound exhibits inhibitory activity (Table 3)” value was “FYN and PDGFRR-α and FLT-3”.

On to `COc1ccccc1-c1nnc(SCCSc2nnc(-c3ccccc3OC)n2-c2ccc(C)cc2)n1-c1ccc(C)cc1` [1,2-bis(5-(2-methoxyphenyl)-4-p-tolyl-4H-1,2,4-triazol-3-ylthio)ethane], for which the “protein kinase against which the compound exhibits inhibitory activity (Table 3)” value is “CDK1”.

With `COc1ccccc1-n1c(SCc2csc(C)n2)nnc1-c1cccc(Cl)c1`, the “protein kinase against which the compound exhibits inhibitory activity (Table 3)” value is on record as “ROCK2”.

With `O=C(NCCSc1nnc(-c2cccs2)[nH]1)c1ccccc1` [N-(2-(5-(thiophen-2-yl)-4H-1,2,4-triazol-3-ylthio)ethyl)benzamide], the “protein kinase against which the compound exhibits inhibitory activity (Table 3)” value was “DYRK2; also recorded: GSK3-α; also recorded: GSK3-β”.

For the compound `CCCCNC(=O)CSc1nnc(-c2ccccc2O)n1-c1ccccc1OC`, the “protein kinase against which the compound exhibits inhibitory activity (Table 3)” value is “INSR and KIT and SYK”.

Turning to `Clc1ccc(-c2nnc(SCc3ccncc3)[nH]2)cc1Cl` [4-((5-(3,4-dichlorophenyl)-4H-1,2,4-triazol-3-ylthio)methyl)pyridine], the “protein kinase against which the compound exhibits inhibitory activity (Table 3)” value is given as “FLT-3; also recorded: GSK3-β”.

As for `Cc1cccc(NCc2nnc(SCc3ccc(Cl)cc3)n2-c2ccccc2)c1`, the “protein kinase against which the compound exhibits inhibitory activity (Table 3)” value was “PDGFRR-α and MSK2”.

As to `Cn1c(Cn2nnc3ccccc32)nnc1SCC(=O)C1c2ccccc2CCc2ccccc21`, the “protein kinase against which the compound exhibits inhibitory activity (Table 3)” value is on record as “MAPKAPK-2”.

For `COc1ccc(CCn2c(CCC3CCCC3)nnc2SCC=C(C)C)cc1OC`, the “protein kinase against which the compound exhibits inhibitory activity (Table 3)” value is “GSK3-β; also recorded: GSK3-α”.

With `COc1ccccc1-n1c(SC(C)C(=O)NCc2ccco2)nnc1-c1ccccc1` (stereo not drawn), the “protein kinase against which the compound exhibits inhibitory activity (Table 3)” value is recorded as “AKT1”.

Turning to `CN(C)CCCSc1nnc(-c2ccc(OC(F)(F)F)cc2)[nH]1`, the “protein kinase against which the compound exhibits inhibitory activity (Table 3)” value is reported as “c-TAK1; also recorded: AURORA-A; also recorded: CHEK2”.

For `Cc1cccc(-c2nnc(SCc3ccc(C(=O)O)cc3)[nH]2)c1` [4-((5-m-tolyl-4H-1,2,4-triazol-3-ylthio)methyl)benzoic acid], the “protein kinase against which the compound exhibits inhibitory activity (Table 3)” value is on record as “FLT-3; also recorded: DYRK2; also recorded: AURORA-A”.

For `COc1ccc(-n2c(SCCN3CCOCC3)nnc2-c2ccc(O)cc2)cc1`, the “protein kinase against which the compound exhibits inhibitory activity (Table 3)” value is given as “GSK3-α; also recorded: GSK3-β”.

Consider `FC(F)(F)c1cccc(-c2nnc(SCCc3ccccc3)[nH]2)c1` [3-(phenethylthio)-5-(3-(trifluoromethyl)phenyl)-4H-1,2,4-triazole], for which the “protein kinase against which the compound exhibits inhibitory activity (Table 3)” value is on record as “AURORA-A; also recorded: GSK3-α”.

For the compound `c1ccc(CSc2nnc(CCC3CCCC3)n2Cc2cccnc2)cc1`, the “protein kinase against which the compound exhibits inhibitory activity (Table 3)” value is on record as “GSK3-α”.

On to `Cc1ccc(C(=O)NNC(=O)CSc2nnc(COc3ccc(C#N)cc3)n2-c2ccccc2)cc1`, for which the “protein kinase against which the compound exhibits inhibitory activity (Table 3)” value is “LCK”.

Consider `COc1ccc(NCc2nnc(SCCCC3CCCCC3)n2C)cc1`, for which the “protein kinase against which the compound exhibits inhibitory activity (Table 3)” value was “PDGFRR-α and FYN and FLT-3”.

With `CCOc1ccc2nc(-c3ccc(OC)cc3)cc(-c3nnc(SCc4ccc(F)cc4F)n3C)c2c1`, the “protein kinase against which the compound exhibits inhibitory activity (Table 3)” value is listed as “CHEK2”.
